# Experimental data as given in paper PMC12006171, “Marsupial cathelicidins: characterization, antimicrobial activity and evolution in this unique mammalian lineage” (Frontiers in Immunology, 2025).
# Where two headings read alike, the source gives them in different places. Where a SMILES comes first, the peptide text is derived from it.
# Experiments:
# [1] = tested on: Tasmanian devil facial tumor disease; conditions: cited from earlier work
# Excerpt: Many marsupial and monotreme cathelicidins were closely related to the classic cathelicidins found in eutherians. These cathelicidins sit within clade II in the phylogenetic tree, sister to eutherians but were not orthologous ( Figure 3 ). Classic marsupial cathelicidins were encoded in cluster A in the genome of all marsupials and monotremes studied, syntenic to the single cathelicidin gene/cluster in eutherians ( Figure 2 ). Many of these were antimicrobial and bactericidal, with MICs equal to or less than eutherian peptides such as cow BMAP-27 and -28 ([87]) and human LL-37, including again ...
# [2] = tested on: six bacteria (S. aureus, E. coli, P. aeruginosa; ATCC and clinical isolate); design: method as in 4 sources, ref Peel et al 2016 ||| ref Peel et al 2021 ||| ref Wang et al 2011 ||| ref Peel et al 2017; conditions: mature peptide; Y/N summary from earlier study; ref Peel et al 2016; cited from earlier work
# [3] = tested on: three fungi (Candida krusei, Candida parapsilosis, Candida albicans); design: method as in 4 sources, ref Peel et al 2016 ||| ref Peel et al 2021 ||| ref Wang et al 2011 ||| ref Peel et al 2017; conditions: mature peptide; Y/N summary from earlier study; ref Peel et al 2016; cited from earlier work
# [4] = tested on: Staphylococcus aureus clinical isolate - animal; assay: microbe, parasite or virus in culture; format: cell-based; conditions: clinical isolate - animal; read-out: MIC S. aureus
# Summary of the method: (§1)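 Bacteria at a final 5 x 10^5 CFU/mL were incubated 20–24 h at 35 °C with DMSO-solubilized peptides serially diluted to 64–0.125 μg/mL in Mueller Hinton broth (± lysed horse blood, ± divalent cations). MIC read as no visible growth; bactericidal action from colony counts compared with the inoculum.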
# [5] = tested on: Escherichia coli ATCC 25922; assay: microbe, parasite or virus in culture; format: cell-based
# Summary of the method: as §1
# [6] = tested on: Pseudomonas aeruginosa clinical isolate - animal; assay: microbe, parasite or virus in culture; format: cell-based
# Summary of the method: as §1
# [7] = tested on: Escherichia coli clinical isolate - animal; assay: microbe, parasite or virus in culture; format: cell-based
# Summary of the method: as §1
# [8] = tested on: Pseudomonas aeruginosa ATCC 27853; assay: microbe, parasite or virus in culture; format: cell-based
# Summary of the method: as §1
# [9] = tested on: Staphylococcus aureus ATCC 29213; assay: microbe, parasite or virus in culture; format: cell-based; conditions: ATCC 29213; read-out: MIC S. aureus ATCC
# Summary of the method: as §1
# E. coli ATCC 25922 = assay: Killing kinetics (time kill assay); format: cell-based, Escherichia coli; conditions: MHB, 35°C, sampled 1-24 hours, n = 2
# Procedure: The killing kinetics assay was conducted using mid-logarithmic phase cultures of E. coli ATCC 25922 and S. aureus ATCC 29213 in MHB. Cultures were adjusted to a 0.5 McFarland standard, diluted in MHB, and then 100µL was added to each culture tube containing 10mL pre-warmed MHB to give a final inoculum concentration of 5 x 10^5 CFU/mL. A sterility control of 100uL MHB, growth control (no cathelicidin), and vehicle control (DMSO) were also included. Furthermore, 10uL was immediately removed from the growth control tube, diluted 1/1000 in saline and 100µL plated onto MHA in duplicate to confirm inoculum density. To establish colony counts from 0 hours of cathelicidin treatment, 200µL was removed from each culture tube and serially diluted ten-fold in saline from 10^0 to […] in a total volume of 200µL. Then, 10µL of each dilution was spotted onto MHA in duplicate, which were incubated at 35°C for 24 hours.
# All culture tubes were then incubated at 35°C static. At 1, 2, 4, 6, 8, 10, 12, and 24 hours post-cathelicidin treatment, 200µL was removed from each culture tube for dilution and plated on MHA as described above. […] Counts of duplicates were averaged, and the log10 CFU/mL graphed against time. This was used as input for one-way ANOVA (p < 0.05) followed by Dunnett’s post hoc test.
# [10] = tested on: Streptococcus pneumoniae ATCC 49619; assay: microbe, parasite or virus in culture; format: cell-based; conditions: ATCC 49619; read-out: MIC S. pneumoniae ATCC
# Summary of the method: (§2)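 Endpoint is visible-growth inhibition (MIC) after 35°C, 20–24 h incubation. Yeast medium was RPMI-1640 MOPS; bacterial medium was Mueller Hinton broth, with or without divalent cations and lysed horse blood. Final peptide range 64-0.125μg/mL.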
# [11] = tested on: Streptococcus agalactiae Clinical isolate - animal; assay: microbe, parasite or virus in culture; format: cell-based; conditions: clinical isolate - animal; read-out: MIC S. agalactiae
# Summary of the method: as §2
# [12] = tested on: Streptococcus agalactiae ATCC 12386; assay: microbe, parasite or virus in culture; format: cell-based; conditions: ATCC 12386; read-out: MIC S. agalactiae ATCC
# Summary of the method: as §2
# [13] = tested on: six bacteria (S. aureus, E. coli, P. aeruginosa; ATCC and clinical isolate); format: cell-based
# Summary of the method: as §1
# Candida krusei ATCC 6258 = assay: microbe, parasite or virus in culture; format: cell-based; conditions: ATCC 6258; read-out: MIC C. krusei ATCC
# Summary of the method: as §2
# [14] = tested on: Candida parapsilosis ATCC 22019; assay: microbe, parasite or virus in culture; format: cell-based; conditions: ATCC 22019
# Summary of the method: as §2
# [15] = tested on: Candida albicans Clinical isolate - human; assay: microbe, parasite or virus in culture; format: cell-based; conditions: Clinical isolate - human; read-out: MIC C. albicans
# Summary of the method: as §2
# [16] = clinical isolate - animal, read-out: MIC P. aeruginosa
# [17] = MHB without cations, 5 x 10^5 CFU/mL, 35°C 20–24 hours, duplicate
# [18] = superscript value, cation-adjusted Mueller Hinton broth
# [19] = value in brackets, 99.9% reduction in CFU/mL
# [20] = clinical isolate, MHB without cations, 5 x 10^5 CFU/mL, 35°C 20–24 hours, duplicate
# [21] = clinical isolate, superscript value, cation-adjusted Mueller Hinton broth
# [22] = clinical isolate, value in brackets, 99.9% reduction in CFU/mL
compound,measurement,setting,value
"KIKRIGLGGFIGRILDRIRRLG [SahaCath5, Tasmanian devil cathelicidin, reference compound]",Toxicity to Tasmanian devil facial tumor disease,[1],toxic to Tasmanian devil facial tumor disease
same,Antibacterial (MIC <64ug/mL),[2],Y (Peel et al 2016) (Antibacterial (MIC <64ug/mL))
same,Antifungal (MIC <64ug/mL),[3],Y (Peel et al 2016) (Antifungal (MIC <64ug/mL))
CC[C@H](C)[C@H](NC(=O)[C@H](CC(=O)O)NC(=O)[C@H](CC(=O)O)NC(=O)CNC(=O)[C@H](CC(C)C)NC(=O)[C@H](CCCCN)NC(=O)[C@@H](NC(=O)[C@H](C)NC(=O)[C@H](CCCCN)NC(=O)[C@H](CCCNC(=N)N)NC(=O)[C@H](CCCCN)NC(=O)[C@H](CC(C)C)NC(=O)[C@H](CO)NC(=O)[C@H](CCC(=O)O)NC(=O)[C@H](Cc1c[nH]c2ccccc12)NC(=O)[C@H](CC(C)C)NC(=O)CNC(=O)[C@H](CCCNC(=N)N)NC(=O)[C@@H](N)CCCCN)[C@@H](C)O)C(=O)N[C@@H](CCCNC(=N)N)C(=O)N[C@@H](CC(N)=O)C(=O)N[C@H](C(=O)N[C@@H](CC(C)C)C(=O)N[C@@H](CCCNC(=N)N)C(=O)N[C@@H](CC(N)=O)C(=O)N[C@@H](Cc1ccccc1)C(=O)N[C@@H](CCCCN)C(=O)N[C@H](C(=O)N[C@@H](CCCCN)C(=O)N[C@H](C(=O)N1CCC[C@H]1C(=O)N[C@H](C(=O)N1CCC[C@H]1C(=O)N[C@@H](CCCNC(=N)N)C(=O)N[C@@H](CCC(N)=O)C(=O)N[C@@H](Cc1c[nH]c2ccccc12)C(=O)N1CCC[C@H]1C(=O)N[C@H](C(=O)N[C@@H](CCCNC(=N)N)C(=O)N[C@H](C(=O)O)C(C)C)[C@@H](C)CC)C(C)C)C(C)C)[C@@H](C)CC)[C@@H](C)O [MaruCath4] (H-KRGLWESLKRKATKLGDDIRNTLRNFKIKVPVPRQWPIRV-OH; N-terminus and C-terminus assumed),MIC,[4],>13.2 µM
same,MIC E. coli ATCC,[5]; ATCC 25922,1.6 (1.6)^1.6 µM
same,MIC in the presence of cations E. coli ATCC,[5]; ATCC 25922,1.6 (1.6)^1.6 µM
same,MIC,[6]; [16],>13.2 µM
same,MBC E. coli,[7]; clinical isolate - animal,6.6 (6.6)^6.6 µM
same,MIC E. coli,[7]; clinical isolate - animal,6.6 (6.6)^6.6 µM
same,MIC in the presence of cations E. coli,[7]; clinical isolate - animal,6.6 (6.6)^6.6 µM
same,MIC,"[8]; ATCC 27853, read-out: MIC P. aeruginosa ATCC",>13.2 µM
same,MIC,[9],>13.2 µM
same,Number of hours to cause a significant reduction in log CFU/mL of E. coli ATCC (p < 0.05),E. coli ATCC 25922; 2x MIC,4 hours
same,Number of hours to cause a significant reduction in log CFU/mL of E. coli ATCC (p < 0.05),E. coli ATCC 25922; MIC,4 hours
same,MIC,[10],>13.2 µM
same,MIC,[11],>13.2 µM
same,MIC,[12],>13.2 µM
CC[C@H](C)[C@H](NC(=O)[C@H](CCCCN)NC(=O)[C@@H](NC(=O)[C@H](CC(N)=O)NC(=O)[C@H](CCCCN)NC(=O)[C@H](CC(C)C)NC(=O)[C@H](CCCNC(=N)N)NC(=O)[C@H](CCCCN)NC(=O)[C@H](CCCCN)NC(=O)[C@@H](NC(=O)[C@H](CO)NC(=O)[C@H](CCCCN)NC(=O)CNC(=O)[C@H](CC(C)C)NC(=O)[C@H](CCCCN)NC(=O)[C@H](CCCCN)NC(=O)[C@H](CC(C)C)NC(=O)[C@H](CCCCN)NC(=O)[C@H](CCCCN)NC(=O)[C@H](CCCNC(=N)N)NC(=O)[C@H](CC(C)C)NC(=O)CNC(=O)[C@H](CCCNC(=N)N)NC(=O)[C@@H](N)CO)[C@@H](C)CC)[C@@H](C)CC)C(=O)NCC(=O)N[C@@H](Cc1ccc(O)cc1)C(=O)N[C@@H](CO)C(=O)N[C@H](C(=O)N1CCC[C@H]1C(=O)N[C@@H](Cc1ccccc1)C(=O)N1CCC[C@H]1C(=O)NCC(=O)O)[C@@H](C)CC [PspeCath1] (H-SRGLRKKLKKLGKSIKKRLKNIKIGYSIPFPG-OH; N-terminus and C-terminus assumed),MIC,[4],>17.5 µM
same,MBC E. coli ATCC,[5]; ATCC 25922,2.1 µM
same,MIC,"[5]; ATCC 25922, read-out: MIC E. coli ATCC",1 µM
same,MIC,"[5]; ATCC 25922, read-out: MIC in the presence of cations E. coli ATCC",1 µM
same,MIC E. coli ATCC,[5]; [17],4 µg/mL
same,MIC in the presence of cations E. coli ATCC,[5]; [18],4 µg/mL
same,MBC E. coli ATCC,[5]; [19],8 µg/mL
same,MBC P. aeruginosa,[6]; clinical isolate - animal,4.3 µM
same,MIC,[6]; [16],2.1 µM
same,MIC,"[6]; clinical isolate - animal, read-out: MIC in the presence of cations P. aeruginosa",2.1 µM
same,MIC P. aeruginosa,[6]; [20],8 µg/mL
same,MIC in the presence of cations P. aeruginosa,[6]; [21],8 µg/mL
same,MBC P. aeruginosa,[6]; [22],16 µg/mL
same,MBC E. coli,[7]; clinical isolate - animal,1 µM
same,MIC,[7]; clinical isolate - animal,1 µM
same,MIC in the presence of cations E. coli,[7]; clinical isolate - animal,0.5 µM
same,MIC E. coli,[7]; [20],4 µg/mL
same,MIC in the presence of cations E. coli,[7]; [21],2 µg/mL
same,MBC E. coli,[7]; [22],4 µg/mL
same,MBC P. aeruginosa ATCC,[8]; ATCC 27853,2.1 (2.1)^2.1 µM
same,MIC P. aeruginosa ATCC,[8]; ATCC 27853,2.1 (2.1)^2.1 µM
same,MIC in the presence of cations P. aeruginosa ATCC,[8]; ATCC 27853,2.1 (2.1)^2.1 µM
same,MIC P. aeruginosa ATCC,[8]; [17],8 (8)^8 µg/mL
same,MIC in the presence of cations P. aeruginosa ATCC,[8]; [18],8 (8)^8 µg/mL
same,MBC P. aeruginosa ATCC,[8]; [19],8 (8)^8 µg/mL
same,MIC,[9],>17.5 µM
same,MIC against at least one strain,[13],4 µg/mL
same,Number of hours to cause a significant reduction in log CFU/mL of E. coli ATCC (p < 0.05),E. coli ATCC 25922; 0.5x MIC,2 hours
same,Number of hours to cause a significant reduction in log CFU/mL of E. coli ATCC (p < 0.05),E. coli ATCC 25922; 2x MIC,1 hours
same,Number of hours to cause a significant reduction in log CFU/mL of E. coli ATCC (p < 0.05),E. coli ATCC 25922; MIC,2 hours
same,MIC,[10],>17.5 µM
same,MIC,[11],>17.5 µM
same,MIC,Candida krusei ATCC 6258,>17.5 µM
same,MIC,[12],>17.5 µM
same,MFC C. parapsilosis ATCC,[14],> 17.5 µM
same,MIC,[14]; read-out: MIC C. parapsilosis ATCC,8.75 µM
same,MIC,[15],>17.5 µM
"KRIRFFERIRDRLRDLGNRIKNRIRDFFS [SahaCath6, Tasmanian devil cathelicidin, reference compound]",Toxicity to Tasmanian devil facial tumor disease,[1],toxic to Tasmanian devil facial tumor disease
same,Antibacterial (MIC <64ug/mL),[2],Y (Peel et al 2016) (Antibacterial (MIC <64ug/mL))
same,Antifungal (MIC <64ug/mL),[3],Y (Peel et al 2016) (Antifungal (MIC <64ug/mL))
